Experiments:
[1] = In vivo pharmacokinetic study in rats; settings: rat, plasma, oral, 10 mg/kg
Experimental: Blood was collected from rats at different times after administration at the following time points: 0.083 h, 0.25 h, 0.5 h, 1 h, 2 h, 4 h, 8 h, and 24 h after intravenous administration; 0.25 h, 0.5 h, 1 h, 2 h, 4 h, 6 h, 8 h, and 24 h after oral administration. About 0.20 mL of blood was collected via jugular vein or other suitable means for each sample at the corresponding time, with heparin sodium for anticoagulation; the blood sample was placed on ice after collection and centrifuged within 1 h to separate the plasma (centrifugation conditions: centrifugal force 6800 g, 6 min, 2-8° C.). The collected plasma samples were stored in a refrigerator at −80° C. before analysis, and the remaining plasma samples continued to be temporarily stored in the refrigerator at −80° C. for one month after analysis.
Pharmacokinetic parameters such as AUC (0-t), T1/2, Cmax, Tmax, and MRT were calculated using WinNonlin based on plasma concentration data at different time points. The plasma drug concentration-time curve was plotted with BLQ recorded as 0. For the calculation of pharmacokinetic parameters, the concentration before administration was calculated as 0; BLQ before Cmax (including “No peak”) was calculated as 0; no BLQ (including “No peak”) appeared after Cmax participated in the calculation. The experiment was completed by Shanghai Medicilon Inc.

[2] = molecular target: PI3 Kinase (p110a(E545K)/p85a)(h) (Homo sapiens (Human), UniProt P42336, E545K); assay: Kinase Profiler 10 μM panel
Experimental: (§1) In vitro kinase assays were conducted using Kinase Profiler services provided by Eurofins. The experimental method was as follows: the small molecule compound to be tested (0.001-10 μM), the protein kinase to be tested were incubated with a buffer containing substrate, 10 mM magnesium acetate, and [γ-^33P-ATP], the reaction was started by adding Mg\TPmix, after incubation for a period of time at room temperature, a 3% phosphate solution was added to the buffer to stop the reaction. Subsequently, 10 μL of the reaction mixture was quantitatively pipetted onto P30 filter paper, which was washed three times with 75 mM phosphate solution and then once with methanol. The P30 filter paper was air-dried and scintillation fluid was added for scintillation counting.

[3] = molecular target: PI3 Kinase (p110a/p85a)(h) (Homo sapiens (Human), UniProt P42336); assay: Kinase Profiler 10 μM panel
Experimental: The experimental method was as follows: the small molecule compound to be tested (0.001-10 μM), the protein kinase to be tested were incubated with a buffer containing substrate, 10 mM magnesium acetate, and [γ-^33P-ATP], the reaction was started by adding Mg\TPmix, after incubation for a period of time at room temperature, a 3% phosphate solution was added to the buffer to stop the reaction. Subsequently, 10 μL of the reaction mixture was quantitatively pipetted onto P30 filter paper, which was washed three times with 75 mM phosphate solution and then once with methanol. The P30 filter paper was air-dried and scintillation fluid was added for scintillation counting.

ALK6(h) = ALK6(h) (Homo sapiens (Human), UniProt O00238); assay: Kinase Profiler 10 μM panel
Experimental: as §1

PI3KC2a(h) = PI3KC2a(h) (Homo sapiens (Human), UniProt O00443); assay: Kinase Profiler 10 μM panel
Experimental: as §1

Aurora-B(h) = Aurora-B(h) (Homo sapiens (Human), UniProt Q96GD4); assay: Kinase Profiler 10 μM panel
Experimental: as §1

IGF-1R(h) = IGF-1R(h) (Homo sapiens (Human), UniProt P08069); assay: Kinase Profiler 10 μM panel
Experimental: as §1

BRK(h) = BRK(h) (Homo sapiens (Human), UniProt Q13882); assay: Kinase Profiler 10 μM panel
Experimental: as §1

IRR(h) = IRR(h) (Homo sapiens (Human), UniProt P14616); assay: Kinase Profiler 10 μM panel
Experimental: as §1

CaMKIIγ(h) = CaMKIIγ(h) (Homo sapiens (Human), UniProt Q13555); assay: Kinase Profiler 10 μM panel
Experimental: as §1

CaMKIδ(h) = CaMKIδ(h) (Homo sapiens (Human), UniProt Q8IU85); assay: Kinase Profiler 10 μM panel
Experimental: as §1

PRK2(h) = PRK2(h) (Homo sapiens (Human), UniProt Q16513); assay: Kinase Profiler 10 μM panel
Experimental: as §1

CDK5/p35(h) = CDK5/p35(h) (Homo sapiens (Human), UniProt Q00535); assay: Kinase Profiler 10 μM panel
Experimental: as §1

Rsk4(h) = Rsk4(h) (Homo sapiens (Human), UniProt Q9UK32); assay: Kinase Profiler 10 μM panel
Experimental: as §1

MEK2(h) = MEK2(h) (Homo sapiens (Human), UniProt P36507); assay: Kinase Profiler 10 μM panel
Experimental: as §1

CHK2(h) = CHK2(h) (Homo sapiens (Human), UniProt O96017); assay: Kinase Profiler 10 μM panel
Experimental: as §1

TAF1L(h) = TAF1L(h) (Homo sapiens (Human), UniProt Q8IZX4); assay: Kinase Profiler 10 μM panel
Experimental: as §1

DAPK2(h) = DAPK2(h) (Homo sapiens (Human), UniProt Q9UIK4); assay: Kinase Profiler 10 μM panel
Experimental: as §1

TTK(h) = TTK(h) (Homo sapiens (Human), UniProt P33981); assay: Kinase Profiler 10 μM panel
Experimental: as §1

EphA7(h) = EphA7(h) (Homo sapiens (Human), UniProt Q15375); assay: Kinase Profiler 10 μM panel
Experimental: as §1

PAR-1Bα(h) = PAR-1Bα(h) (Homo sapiens (Human), UniProt Q7KZI7); assay: Kinase Profiler 10 μM panel
Experimental: as §1

PASK(h) = PASK(h) (Homo sapiens (Human), UniProt Q96RG2); assay: Kinase Profiler 10 μM panel
Experimental: as §1

VRK1(h) = VRK1(h) (Homo sapiens (Human), UniProt Q99986); assay: Kinase Profiler 10 μM panel
Experimental: as §1

PDGFRα(h) = PDGFRα(h) (Homo sapiens (Human), UniProt P16234); assay: Kinase Profiler 10 μM panel
Experimental: as §1

PDGFRα(V561D)(h) = PDGFRα(V561D)(h) (Homo sapiens (Human), UniProt P16234, V561D); assay: Kinase Profiler 10 μM panel
Experimental: as §1

FAK(h) = FAK(h) (Homo sapiens (Human), UniProt Q05397); assay: Kinase Profiler 10 μM panel
Experimental: as §1

FGFR3(h) = FGFR3(h) (Homo sapiens (Human), UniProt P22607); assay: Kinase Profiler 10 μM panel
Experimental: as §1

Chain of IGF-1R(h) (P08069 31-1367): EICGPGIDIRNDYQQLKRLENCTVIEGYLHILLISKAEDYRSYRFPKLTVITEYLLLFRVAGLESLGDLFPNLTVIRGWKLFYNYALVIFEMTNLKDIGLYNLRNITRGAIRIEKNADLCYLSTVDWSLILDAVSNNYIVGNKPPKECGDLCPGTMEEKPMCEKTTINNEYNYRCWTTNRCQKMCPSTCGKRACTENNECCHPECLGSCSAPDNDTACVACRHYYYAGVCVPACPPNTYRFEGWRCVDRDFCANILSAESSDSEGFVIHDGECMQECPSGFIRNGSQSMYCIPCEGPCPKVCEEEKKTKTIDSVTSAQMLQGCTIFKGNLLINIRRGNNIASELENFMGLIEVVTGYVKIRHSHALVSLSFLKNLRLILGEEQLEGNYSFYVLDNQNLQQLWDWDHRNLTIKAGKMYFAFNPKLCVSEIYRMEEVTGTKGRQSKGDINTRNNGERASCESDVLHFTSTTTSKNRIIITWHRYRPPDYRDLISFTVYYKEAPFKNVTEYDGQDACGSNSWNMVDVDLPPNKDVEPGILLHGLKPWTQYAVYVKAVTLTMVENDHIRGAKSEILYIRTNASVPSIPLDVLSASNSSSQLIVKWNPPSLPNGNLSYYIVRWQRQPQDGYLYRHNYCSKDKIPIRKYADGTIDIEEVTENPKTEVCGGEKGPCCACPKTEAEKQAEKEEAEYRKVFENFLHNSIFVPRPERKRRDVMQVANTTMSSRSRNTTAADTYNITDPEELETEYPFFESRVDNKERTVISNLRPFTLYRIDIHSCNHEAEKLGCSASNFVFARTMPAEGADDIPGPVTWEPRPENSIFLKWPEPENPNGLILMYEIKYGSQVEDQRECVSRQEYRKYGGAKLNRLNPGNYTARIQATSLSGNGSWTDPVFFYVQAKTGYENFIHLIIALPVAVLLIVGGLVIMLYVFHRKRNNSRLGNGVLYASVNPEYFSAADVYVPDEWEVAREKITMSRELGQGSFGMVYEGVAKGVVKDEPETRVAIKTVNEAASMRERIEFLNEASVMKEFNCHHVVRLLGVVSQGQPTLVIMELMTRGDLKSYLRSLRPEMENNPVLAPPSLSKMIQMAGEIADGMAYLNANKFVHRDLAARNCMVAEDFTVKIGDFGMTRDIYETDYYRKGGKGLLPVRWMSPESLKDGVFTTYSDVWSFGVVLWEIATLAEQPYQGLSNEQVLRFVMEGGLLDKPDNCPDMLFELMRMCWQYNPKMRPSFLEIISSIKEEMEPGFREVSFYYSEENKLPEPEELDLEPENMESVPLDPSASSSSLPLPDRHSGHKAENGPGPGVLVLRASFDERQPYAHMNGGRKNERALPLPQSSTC
Chain of EphA7(h) (Q15375 28-998): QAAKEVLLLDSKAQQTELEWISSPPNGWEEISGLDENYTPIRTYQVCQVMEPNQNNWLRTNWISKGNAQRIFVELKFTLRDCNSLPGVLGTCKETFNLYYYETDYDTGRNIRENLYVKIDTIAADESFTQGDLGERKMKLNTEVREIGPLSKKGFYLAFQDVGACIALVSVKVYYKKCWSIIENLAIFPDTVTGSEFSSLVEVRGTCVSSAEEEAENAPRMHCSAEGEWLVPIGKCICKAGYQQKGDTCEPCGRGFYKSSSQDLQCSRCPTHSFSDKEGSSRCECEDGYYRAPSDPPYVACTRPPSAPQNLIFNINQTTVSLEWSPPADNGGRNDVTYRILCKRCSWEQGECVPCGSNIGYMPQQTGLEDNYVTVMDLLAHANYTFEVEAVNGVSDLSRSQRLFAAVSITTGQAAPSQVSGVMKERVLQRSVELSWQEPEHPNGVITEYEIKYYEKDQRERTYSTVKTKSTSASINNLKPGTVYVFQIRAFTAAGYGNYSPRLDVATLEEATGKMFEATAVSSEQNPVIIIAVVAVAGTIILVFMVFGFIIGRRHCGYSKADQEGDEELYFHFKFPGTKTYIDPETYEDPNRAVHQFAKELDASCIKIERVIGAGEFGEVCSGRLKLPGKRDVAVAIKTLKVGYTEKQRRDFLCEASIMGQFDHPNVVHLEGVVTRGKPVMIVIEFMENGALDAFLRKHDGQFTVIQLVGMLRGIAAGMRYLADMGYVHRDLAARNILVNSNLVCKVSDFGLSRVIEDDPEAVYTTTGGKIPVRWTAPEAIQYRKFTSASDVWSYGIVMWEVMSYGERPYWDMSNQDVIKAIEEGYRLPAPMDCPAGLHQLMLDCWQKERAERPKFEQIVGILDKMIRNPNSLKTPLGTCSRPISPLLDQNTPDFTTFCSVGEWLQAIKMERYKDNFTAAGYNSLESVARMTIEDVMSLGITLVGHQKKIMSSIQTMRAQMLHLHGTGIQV
Chain of MEK2(h) (P36507 whole entry): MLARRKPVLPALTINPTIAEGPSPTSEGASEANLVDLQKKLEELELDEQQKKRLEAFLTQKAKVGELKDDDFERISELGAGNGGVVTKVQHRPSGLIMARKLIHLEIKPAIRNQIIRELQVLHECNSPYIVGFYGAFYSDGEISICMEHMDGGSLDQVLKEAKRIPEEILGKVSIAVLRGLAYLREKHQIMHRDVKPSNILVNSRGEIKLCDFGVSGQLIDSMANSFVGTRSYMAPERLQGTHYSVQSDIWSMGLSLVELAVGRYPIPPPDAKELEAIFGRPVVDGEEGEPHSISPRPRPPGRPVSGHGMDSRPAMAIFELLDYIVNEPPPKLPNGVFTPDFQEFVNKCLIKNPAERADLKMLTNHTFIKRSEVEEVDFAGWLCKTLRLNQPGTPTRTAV
Chain of Aurora-B(h) (Q96GD4 whole entry): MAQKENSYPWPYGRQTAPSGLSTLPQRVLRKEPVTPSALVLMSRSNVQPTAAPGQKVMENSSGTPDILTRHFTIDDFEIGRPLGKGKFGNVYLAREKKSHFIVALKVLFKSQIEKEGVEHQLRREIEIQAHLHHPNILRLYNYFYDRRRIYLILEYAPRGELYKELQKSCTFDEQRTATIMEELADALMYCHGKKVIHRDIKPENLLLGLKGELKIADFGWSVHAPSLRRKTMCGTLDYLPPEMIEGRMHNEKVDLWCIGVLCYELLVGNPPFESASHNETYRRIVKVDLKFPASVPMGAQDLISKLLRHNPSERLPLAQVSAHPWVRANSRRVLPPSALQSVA
Chain of CDK5/p35(h) (Q00535 whole entry): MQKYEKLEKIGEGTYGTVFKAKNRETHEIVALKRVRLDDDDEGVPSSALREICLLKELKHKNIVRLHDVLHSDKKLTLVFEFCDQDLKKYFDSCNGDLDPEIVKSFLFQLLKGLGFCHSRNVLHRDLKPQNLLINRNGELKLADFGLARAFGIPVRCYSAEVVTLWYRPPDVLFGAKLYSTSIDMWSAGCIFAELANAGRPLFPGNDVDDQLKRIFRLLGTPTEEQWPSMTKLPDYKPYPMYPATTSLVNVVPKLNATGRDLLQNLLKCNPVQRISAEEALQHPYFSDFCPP
Chain of CDK5/p35(h) (Q15078 whole entry partner): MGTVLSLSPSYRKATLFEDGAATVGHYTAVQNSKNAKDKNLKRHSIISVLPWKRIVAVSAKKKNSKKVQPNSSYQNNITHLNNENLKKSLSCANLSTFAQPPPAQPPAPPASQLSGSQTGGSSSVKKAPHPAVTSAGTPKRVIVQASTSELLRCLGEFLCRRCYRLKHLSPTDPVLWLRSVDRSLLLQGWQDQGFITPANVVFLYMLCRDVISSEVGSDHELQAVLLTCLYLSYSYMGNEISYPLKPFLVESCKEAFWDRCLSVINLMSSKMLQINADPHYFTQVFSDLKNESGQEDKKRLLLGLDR
Chain of PASK(h) (Q96RG2 whole entry): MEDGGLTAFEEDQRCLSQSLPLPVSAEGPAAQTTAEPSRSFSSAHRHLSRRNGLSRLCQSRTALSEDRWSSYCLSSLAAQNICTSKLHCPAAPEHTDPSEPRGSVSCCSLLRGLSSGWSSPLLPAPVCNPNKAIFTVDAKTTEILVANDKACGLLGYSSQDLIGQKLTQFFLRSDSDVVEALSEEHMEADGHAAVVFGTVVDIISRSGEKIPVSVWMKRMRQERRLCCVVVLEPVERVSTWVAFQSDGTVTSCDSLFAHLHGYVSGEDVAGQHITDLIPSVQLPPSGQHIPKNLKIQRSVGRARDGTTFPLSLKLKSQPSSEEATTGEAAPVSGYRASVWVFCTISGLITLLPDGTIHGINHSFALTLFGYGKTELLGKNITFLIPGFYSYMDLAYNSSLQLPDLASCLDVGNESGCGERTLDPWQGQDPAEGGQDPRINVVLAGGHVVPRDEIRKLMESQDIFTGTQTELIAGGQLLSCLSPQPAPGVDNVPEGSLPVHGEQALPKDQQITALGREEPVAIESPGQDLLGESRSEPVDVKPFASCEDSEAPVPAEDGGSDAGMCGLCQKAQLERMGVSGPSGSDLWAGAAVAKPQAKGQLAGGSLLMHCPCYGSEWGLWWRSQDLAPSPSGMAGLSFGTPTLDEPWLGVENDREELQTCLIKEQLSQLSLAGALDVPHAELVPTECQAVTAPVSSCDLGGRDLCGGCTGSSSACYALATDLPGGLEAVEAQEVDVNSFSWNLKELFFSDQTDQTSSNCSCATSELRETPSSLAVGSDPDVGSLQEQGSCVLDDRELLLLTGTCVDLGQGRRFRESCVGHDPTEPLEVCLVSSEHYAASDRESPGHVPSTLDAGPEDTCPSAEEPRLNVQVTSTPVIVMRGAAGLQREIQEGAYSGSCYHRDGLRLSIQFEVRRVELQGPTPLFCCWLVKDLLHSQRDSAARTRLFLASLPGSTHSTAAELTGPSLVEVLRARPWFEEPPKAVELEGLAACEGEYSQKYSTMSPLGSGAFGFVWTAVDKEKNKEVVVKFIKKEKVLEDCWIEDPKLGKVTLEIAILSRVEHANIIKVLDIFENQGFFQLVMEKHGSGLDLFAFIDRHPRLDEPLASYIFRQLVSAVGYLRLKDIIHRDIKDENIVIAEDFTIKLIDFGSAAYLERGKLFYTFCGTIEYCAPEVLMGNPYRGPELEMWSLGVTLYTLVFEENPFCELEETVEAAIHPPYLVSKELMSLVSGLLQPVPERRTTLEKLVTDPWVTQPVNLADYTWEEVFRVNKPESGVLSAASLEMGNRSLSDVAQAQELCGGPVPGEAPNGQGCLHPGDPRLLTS

SMILES: C[C@H](NC(=O)c1cn(C)c2ccc(-c3ccn4nc(NC(=O)C5CC5)nc4c3)cc12)c1cccc(F)c1 [Compound 94, (S)-5-(2-(cyclopropanecarboxamido)-[1,2,4]triazolo[1,5-a]pyridin-7-yl)-N-(1-(3-fluorophenyl)ethyl)-1-methyl-1H-indole-3-carboxamide]
- AUC(0-t) [1]: 1850 ng·h/mL
- Cmax [1]: 330 ng/mL
- Tmax [1]: 1.67 h
- bioavailability [1]: 12.1%
- half-life [1]: 7.02 h
- Inhibition ratio/% [2]: 33%
- Inhibition ratio/% [3]: 3%
- Inhibition ratio/% (ALK6(h)): −5%
- Inhibition ratio/% (PI3KC2a(h)): 40%
- Inhibition ratio/% (Aurora-B(h)): 25%
- Inhibition ratio/% (IGF-1R(h)): −4%
- Inhibition ratio/% (BRK(h)): 47%
- Inhibition ratio/% (IRR(h)): 33%
- Inhibition ratio/% (CaMKIIγ(h)): −15%
- Inhibition ratio/% (CaMKIδ(h)): 26%
- Inhibition ratio/% (PRK2(h)): −4%
- Inhibition ratio/% (CDK5/p35(h)): −8%
- Inhibition ratio/% (Rsk4(h)): 3%
- Inhibition ratio/% (MEK2(h)): 13%
- Inhibition ratio/% (CHK2(h)): 8%
- Inhibition ratio/% (TAF1L(h)): 48%
- Inhibition ratio/% (DAPK2(h)): 3%
- Inhibition ratio/% (TTK(h)): 13%
- Inhibition ratio/% (EphA7(h)): 20%
- Inhibition ratio/% (PAR-1Bα(h)): 33%
- Inhibition ratio/% (PASK(h)): 53%
- Inhibition ratio/% (VRK1(h)): 46%
- Inhibition ratio/% (PDGFRα(h)): 51%
- Inhibition ratio/% (PDGFRα(V561D)(h); printed in Table 4 as PDGFRβ (V561D)(h)): 38%
- Inhibition ratio/% (FAK(h)): −3%
- Inhibition ratio/% (FGFR3(h)): 40%

SMILES: C[C@H](NC(=O)c1c[nH]c2ccc(-c3ccc4nc(NC(=O)C5CC5)sc4c3)cc12)c1cccc(F)c1 [Compound 34, (S)-5-(2-(cyclopropanecarboxamido)benzo[d]thiazol-6-yl)-N-(1-(3-fluorophenyl)ethyl)-1H-indole-3-carboxamide]
- AUC(0-t) [1]: 4450 ng·h/mL
- Cmax [1]: 852 ng/mL
- Tmax [1]: 4 h
- bioavailability [1]: 7.89%
- half-life [1]: 2.06 h
- Inhibition ratio [2]: 32%
- Inhibition ratio [3]: 23%
- Inhibition ratio (ALK6(h)): −4%
- Inhibition ratio (PI3KC2a(h)): 16%
- Inhibition ratio (Aurora-B(h)): 21%
- Inhibition ratio (IGF-1R(h)): 28%
- Inhibition ratio (BRK(h)): 4%
- Inhibition ratio (IRR(h)): 50%
- Inhibition ratio (CaMKIIγ(h)): 2%
- Inhibition ratio (CaMKIδ(h)): 22%
- Inhibition ratio (PRK2(h)): 0%
- Inhibition ratio (CDK5/p35(h)): −7%
- Inhibition ratio (Rsk4(h)): −15%
- Inhibition ratio (MEK2(h)): 8%
- Inhibition ratio (CHK2(h)): 22%
- Inhibition ratio (TAF1L(h)): 58%
- Inhibition ratio (DAPK2(h)): 13%
- Inhibition ratio (TTK(h)): 55%
- Inhibition ratio (EphA7(h)): 96%
- Inhibition ratio (PAR-1Bα(h)): 2%
- Inhibition ratio (PASK(h)): −25%
- Inhibition ratio (VRK1(h)): 2%
- Inhibition ratio (PDGFRα(h)): 32%
- Inhibition ratio (PDGFRα(V561D)(h); PDGFRα(V561D)(h)): 99%
- Inhibition ratio (FAK(h)): 33%
- Inhibition ratio (FGFR3(h)): 35%

From patent US20230365546A1, “5-SUBSTITUTED INDOLE 3-AMIDE DERIVATIVES, PREPARATION METHOD AND USE THEREOF” (ORIGIANT PHARMACEUTICAL CO., LTD, priority 2020, published 2023)
